Source: patent US10745393B2, “Small molecular probes, processes and use thereof” (JAWAHARLAL NEHRU CENTRE FOR ADVANCED SCIENTIFIC RESEARCH, priority 2014, dated 2020)

Columns and labels:
[1] = Absorption, emission and quantum yield of probes without Aβ42 aggregates; assay type: physicochemical
Aβ42 monomers = Aβ42 monomers (Homo sapiens, UniProt P05067); experiment: Absorption / fluorescence response with Aβ monomers; assay type: binding; settings: QC 2 μM, Aβ monomers 10 μM
[2] = biological target: bovine serum albumin (BSA) (Bos taurus, UniProt P02769); experiment: Selectivity: fluorescence with BSA; assay type: binding
[3] = system: α-synuclein (A30P) aggregates expressed in S. cerevisiae (BY4741); assay type: cell-based; settings: QC 5 μM
[4] = system: Aβ42 aggregates expressed in S. cerevisiae (BY4741); assay type: cell-based
[5] = system: Aβ plaques in CSF samples; experiment: Detection of amyloid plaques in CSF samples by fluorescence; settings: QC 10 μM
Description: In the present experiment, Amyloid plaques in the CSF sample are detected as it is a hallmark of AD using ThT and QC. […] QC (10 μM) is used to detect Aβ plaques in the same set of CSF samples, which show the same trend as Thioflavin assay and stains CSF3, CSF5, CSF6 and CSF12 samples (FIG. 57 and table 6).

[6] = biological target: T1, islet amyloid polypeptide (IAPP) aggregates (Homo sapiens, UniProt P10997); experiment: Selectivity: fluorescence with IAPP aggregates; assay type: binding; settings: IAPP aggregates 20 μM
T1 construct: A 0.1 mg (Merck, calbiochem) sample of amylin is dissolved in 100 μL of acetonitrile; purchased Merck, calbiochem

calf thymus DNA = experiment: Selectivity of QC: fluorescence with calf thymus DNA; assay type: binding; settings: QC 2 μM, DNA 20 μM
Description: Selective fluorescence enhancement is shown by QC probe, with strong binding affinity. Probe QC has very good lipophilicity to cross the BBB and serum stability. QC detects Aβ plaques in CSF samples of patient which can be used in early diagnosis of Alzheimer's Disease. Probe QC is a molecular rotor moiety containing an electron withdrawing group in conjugation with an electron releasing group with a freely rotatable bond. Prevention of internal rotation in QC by surrounding medium rigidity, leads to a decrease in the non-radiative decay rate and an increase in fluorescence emission. […] In presence of Aβ42 aggregates (10 μM) prepared in PBS buffer (10 mM), absorption maxima at 521 nm (λex) and a blue shifted emission maxima (10 nm) with huge (>100 fold) fluorescence enhancement ([…]=654 nm) and a large stoke shift of ˜130 nm is observed (FIG. 47). […] These peptides are known to form fibrillar aggregates similar to Aβ42 aggregates. […] No such changes are observed in case of IAPP aggregates.

[7] = Partition coefficient (Log P), shake flask method; assay type: physicochemical; settings: n-octanol/water
Description: Log P value is calculated by Shake flask (or tube) method. To an equilibrated solution of n-octanol and water in a separating funnel, probe QC/TC is added and agitated well. The solution is left for 30 minutes for proper separation of immiscible solvents, then the distribution of QC/TC is calculated using UV spectroscopy and the obtained concentrations are used in below equation to obtain log P value log P=log [Conc. of QC or TC in n-octanol/Conc. of QC or TC in water]

Aβ42 aggregates [8] = biological target: T2, Aβ42 aggregates (Homo sapiens, UniProt P05067); experiment: Binding saturation assay (fluorescence) for binding constant; settings: fluorescence saturation curve; Aβ42 aggregates 10 μM (QC) or 2 μM (TC); read-out: dissociation constant Kd
[9] = biological target: ThT/Aβ42 aggregate complex (Homo sapiens, UniProt P05067); experiment: ThT displacement / FRET assay; assay type: binding; settings: decay at 483 nm, enhancement at 654 nm
[10] = biological target: α-Synuclein (α-Syn) aggregates (Homo sapiens, UniProt P37840); experiment: Selectivity: fluorescence with α-synuclein aggregates; assay type: binding
Aβ42 aggregates [11] = biological target: T2, Aβ42 aggregates; experiment: Absorption / fluorescence response with Aβ42 fibrillar aggregates; assay type: binding
[12] = In vitro stability in human blood serum (HPLC); assay type: in vitro ADME; settings: 60 min incubation with human blood serum at 37° C.
Description: The in vitro stability of QC in […] is determined by incubating QC (10 μM in H2O, 50 μM) with 300 μL of human blood serum at 37° C. for 30 and 60 min. Proteins are precipitated by adding 500 μL of acetonitrile […] at 5000 rpm for 5 min at 4° C. The supernatant is collected. Approximately 0.1 mL of the supernatant solution is analyzed using HPLC.

[13] = cresyl violet perchlorate standard

bovine serum albumin (BSA), sequence (P02769 25-607): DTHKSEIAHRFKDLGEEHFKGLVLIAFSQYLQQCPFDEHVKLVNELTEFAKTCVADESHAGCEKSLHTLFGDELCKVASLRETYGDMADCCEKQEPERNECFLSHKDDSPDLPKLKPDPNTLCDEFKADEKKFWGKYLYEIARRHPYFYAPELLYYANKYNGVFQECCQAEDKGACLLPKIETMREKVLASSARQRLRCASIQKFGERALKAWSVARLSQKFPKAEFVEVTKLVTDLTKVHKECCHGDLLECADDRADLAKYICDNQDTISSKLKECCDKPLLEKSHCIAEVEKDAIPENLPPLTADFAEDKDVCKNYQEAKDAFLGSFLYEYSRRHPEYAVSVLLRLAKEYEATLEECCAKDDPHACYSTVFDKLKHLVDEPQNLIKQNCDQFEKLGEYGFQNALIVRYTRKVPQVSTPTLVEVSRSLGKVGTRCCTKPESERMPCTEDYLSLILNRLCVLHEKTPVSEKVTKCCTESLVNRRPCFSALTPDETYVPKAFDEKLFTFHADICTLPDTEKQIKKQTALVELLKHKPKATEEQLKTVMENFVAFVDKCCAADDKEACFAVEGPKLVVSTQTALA
T2 sequence (P05067 672-713 limits assumed): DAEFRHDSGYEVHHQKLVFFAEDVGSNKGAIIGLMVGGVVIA
Aβ42 monomers, sequence (P05067 672-713 limits assumed): as above
T1 sequence (P10997 34-70 limits assumed): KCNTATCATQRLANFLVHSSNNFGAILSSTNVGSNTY
ThT/Aβ42 aggregate complex, sequence (P05067 672-713 limits assumed, one chain of several): as the sequence (P05067 672-713 limits assumed) above

SMILES: CCN(CC)c1ccc2cc(/C=C/c3ccc4ccccc4[n+]3C)c(=O)oc2c1.[I-] [QC, 2-(2-(7-(diethylamino)-2-oxo-2H-chromen-3-yl)vinyl)-1-methylquinolin-1-ium Iodide]
- absorption maximum in absence of Aβ42 aggregates ([1]; PBS buffer (10 mM, pH 7.4)): 516 nm
- emission maximum in absence of Aβ42 aggregates ([1]; PBS buffer, very weak fluorescence): 664 nm
- quantum yield, unbound [1, 13]: 0.08
- absorption maxima in presence of Aβ monomers (Aβ42 monomers): 521 nm
- fluorescence enhancement in presence of Aβ monomers (Aβ42 monomers; λem=654 nm): ~7 fold
- fluorescence enhancement with BSA ([2]; BSA 20 μM): considerable fluorescence enhancement is not observed
- shift of emission with BSA ([2]; QC 2 μM): ~34 nm
- λem with BSA ([2]; QC 2 μM): 616 nm
- staining of S. cerevisiae strains with α-synuclein (A30P) aggregates [3]: not stained
- fluorescence correlation coefficient with GFP tagged Aβ42 aggregates ([4]; QC 5 μM): 83.7%
- staining of S. cerevisiae expressing Aβ42 aggregates ([4]; QC 5 μM, live cells): stains S. cerevisiae expressing Aβ42 aggregates selectively
- mean Pearson co-localization coefficient ([4]; live cells counted (n=50)): 0.837
- Normalized fluorescence intensity (QC) ([5]; sample CSF1): 12.50
- Normalized fluorescence intensity (QC) ([5]; sample CSF2): 3.24
- Normalized fluorescence intensity (QC) ([5]; sample CSF3): 29.60
- Normalized fluorescence intensity (QC) ([5]; sample CSF4): 10.70
- Normalized fluorescence intensity (QC) ([5]; sample CSF5): 51.50
- Normalized fluorescence intensity (QC) ([5]; sample CSF6): 29.60
- Normalized fluorescence intensity (QC) ([5]; sample CSF7): 6.40
- Normalized fluorescence intensity (QC) ([5]; sample CSF8): 11.08
- Normalized fluorescence intensity (QC) ([5]; sample CSF9): 6.30
- Normalized fluorescence intensity (QC) ([5]; sample CSF10): 5.40
- Normalized fluorescence intensity (QC) ([5]; sample CSF11): 6.70
- Normalized fluorescence intensity (QC) ([5]; sample CSF12): 44.40
- Normalized fluorescence intensity (QC) ([5]; sample CSF13): 3.20
- Normalized fluorescence intensity (QC) ([5]; sample CSF14): 12.30
- fluorescence enhancement with IAPP aggregates [6]: negligible enhancement in fluorescence
- fluorescence enhancement with calf thymus DNA (calf thymus DNA): slight fluorescence enhancement
- logP [7]: 2.4
- Kd (Aβ42 aggregates [8]): 0.082 ± 0.0023 µM
- displacement of ThT from ThT/Aβ42 aggregate complex [9]: effective displacement of ThT by QC
- blue shift of λem maxima with α-Syn aggregates ([10]; QC 2 μM, α-Syn 20 μM): ~9 nm
- fluorescence enhancement with α-Syn aggregates ([10]; α-Syn aggregates 20 μM): negligible enhancement in fluorescence
- Stokes shift upon binding to Aβ42 aggregates (Aβ42 aggregates [11]): ~130 nm
- blue shift of emission maxima in presence of Aβ42 aggregates (Aβ42 aggregates [11]; QC 2 μM, Aβ42 aggregates 10 μM): 10 nm
- absorption maxima in presence of Aβ42 aggregates (Aβ42 aggregates [11]; QC 2 μM, Aβ42 aggregates 10 μM, PBS 10 mM): 521 nm
- quantum yield after binding to Aβ42 aggregates (Aβ42 aggregates [11]; [13]): 0.36
- emission maximum in presence of Aβ42 aggregates (Aβ42 aggregates [11]; probe 2 μM): 654 nm
- fluorescence enhancement in presence of Aβ42 aggregates (Aβ42 aggregates [11]; probe 2 μM, PBS buffer): > 100 fold
- probe identified intact [12]: more than 97%
